Source: patent US20230271950A1, “ANTIBACTERIAL PICOLINAMIDE COMPOUNDS” (University of Notre Dame Du Lac, priority 2020, published 2023)
In brackets after ≈: the same amount, converted by molar mass. Where two headings read alike, the source gives them in different places.

Experiments:
[1] = tested on: S. aureus ATCC29213; assay: MIC against MSSA; assay type: cell-based, Staphylococcus aureus; conditions: MSSA ATCC 29213; for MIC: Staphylococcus aureus, Table 10, unit inferred, read-out: Activity (MIC) against S. aureus
[2] = tested on: MRSA (NRS70, NRS119); assay: MIC against MRSA strains; assay type: cell-based, Staphylococcus aureus; conditions: NRS70 strain; for MIC: Staphylococcus aureus, read-out: MIC MRSA
[3] = tested on: C. difficile; assay: MIC by broth microdilution against C. difficile strains; assay type: cell-based, Clostridioides difficile; conditions: for MIC: Clostridioides difficile, ATCC43255, ATCC 43255, ribotype 087, read-out: MIC C. difficile; for Selectivity: MIC MRSA/MIC C. difficile, Table 3
[4] = tested on: E. faecium NCTC7171; assay: MIC against E. faecium; assay type: cell-based, Enterococcus faecium; conditions: E. faecium NCTC 7171; for MIC: Enterococcus faecium, NCTC7171, Table 10, unit inferred, read-out: Activity (MIC) against E. faecium
[5] = tested on: HeLa cells; assay: XTT cytotoxicity assay with HeLa cells; assay type: cell-based; conditions: Homo sapiens, Table 6
Procedure: XTT assay. Cytotoxicity assays were performed in triplicate against HeLa cells (ATCC CCL-2). The IC50 values were calculated by nonlinear regression with GraphPad Prism 5 (San Diego, Calif.).
XTT assay. XTT assays were performed with HeLa cells (ATCC CCL-2) in triplicate, as previously described (Lancet 2008, 371, 1486). IC50 values were determined by nonlinear regression using GraphPad Prism 5 (San Diego, Calif.).

Row | Compound | MIC [1] [µg/mL] | MIC ([2]; Table 3 (SAR^2 and SAR^3)) [µg/mL] | MIC ([3]; Table 3 (SAR^2 and SAR^3)) [µg/mL] | Selectivity [3] | MIC [4] [µg/mL] | IC50 [5] [µg/mL] | MIC ([2]; Table 2 (SAR^1)) [µg/mL] | MIC ([3]; Table 2 (SAR^1)) [µg/mL] | Activity (MIC) against S. aureus ([1]; Table 10, unit not given) | MIC MRSA ([2]; Table 2 (SAR^1)) [µg/mL] | MIC C. difficile ([3]; ATCC 43255, ribotype 087, Table 2 (SAR^1)) [µg/mL] | Activity (MIC) against E. faecium ([4]; Table 10, unit not given)
1 | O=C(Nc1ncco1)c1cc(-c2ccc(F)c(Cl)c2)ccn1 [Compound 91, 4-(3-Chloro-4-fluorophenyl)-N-(oxazol-2-yl)picolinamide] | ≥ 128 | 128 (≈ 403 µM) | 0.25 (≈ 0.787 µM) | 512 | ≥ 128 |  |  |  |  |  |  | 
2 | O=C(Nc1ncco1)c1cc(-c2ccc(Cl)c(Cl)c2)ncc1F [Compound 70, 2-(3,4-Dichlorophenyl)-5-fluoro-N-(oxazol-2-yl)isonicotinamide] | 0.25 (≈ 0.71 µM) | 0.0625 (≈ 0.177 µM) | 0.125 (≈ 0.355 µM) | 0.5 | 0.5 (≈ 1.42 µM) |  |  |  |  |  |  | 
3 | O=C(Nc1ncco1)c1ccnc(-c2ccc(F)c(Cl)c2)c1 [Compound 40, 2-(3-Chloro-4-fluorophenyl)-N-(oxazol-2-yl)isonicotinamide] | 0.5 (≈ 1.57 µM) | 0.25 (≈ 0.787 µM) | 0.25 (≈ 0.787 µM) | 1 | 1 (≈ 3.15 µM) |  |  |  |  |  |  | 
4 | O=C(Nc1ncco1)c1cc(Oc2ccc(F)c(F)c2)ccn1 [Compound 106, 4-(3,4-Difluorophenoxy)-N-(oxazol-2-yl)picolinamide] | 64 (≈ 202 µM) |  |  |  | 128 (≈ 403 µM) | 106 ± 2.1 (≈ 334 µM) |  |  |  |  |  | 
5 | O=C(Nc1ncco1)c1ccnc(-c2cccc(F)c2)c1 [Compound 37, 2-(3-Fluorophenyl)-N-(oxazol-2-yl)isonicotinamide] | 2 (≈ 7.06 µM) | 2 (≈ 7.06 µM) | 1 (≈ 3.53 µM) | 2 | 4 (≈ 14.1 µM) |  |  |  |  |  |  | 
6 | O=C(Nc1ncco1)c1ccnc(-c2ccc(Cl)c(F)c2)c1 [Compound 39, 2-(4-Chloro-3-fluorophenyl)-N-(oxazol-2-yl)isonicotinamide] | 0.25 (≈ 0.787 µM) | 0.0625 (≈ 0.197 µM) | 0.125 (≈ 0.393 µM) | 0.5 | 0.5 (≈ 1.57 µM) |  |  |  |  |  |  | 
7 | O=C(Nc1ncco1)c1cc(Oc2ccc(OC(F)(F)F)cc2)ccn1 [Compound 109, N-(Oxazol-2-yl)-4-(4-(trifluoromethoxy)phenoxy)picolinamide] | ≥ 128 |  |  |  | ≥ 128 | 77.4 ± 2.3 (≈ 212 µM) |  |  |  |  |  | 
8 | O=C(Nc1ncco1)c1ccnc(-c2ccc(F)cc2)c1 [Compound 36, 2-(4-Fluorophenyl)-N-(oxazol-2-yl)isonicotinamide] | 4 (≈ 14.1 µM) | 4 (≈ 14.1 µM) | 2 (≈ 7.06 µM) | 2 | 8 (≈ 28.2 µM) |  |  |  |  |  |  | 
9 | O=C(Nc1ncco1)c1cc(Oc2ccc(SC(F)(F)F)cc2)ccn1 [Compound 110, N-(Oxazol-2-yl)-4-(4-((trifluoromethyl)thio)phenoxy)picolinamide] | ≥ 128 |  |  |  | ≥ 128 | 91.6 ± 1.3 (≈ 240 µM) |  |  |  |  |  | 
10 | O=C(Nc1ncco1)c1ccnc(-c2ccc(Cl)cc2)c1 [Compound 32, 2-(4-Chlorophenyl)-N-(oxazol-2-yl)isonicotinamide] | 1 (≈ 3.34 µM) | 1 (≈ 3.34 µM) | 0.5 (≈ 1.67 µM) | 2 | 2 (≈ 6.67 µM) |  |  |  |  |  |  | 
11 | O=C(Nc1ncco1)c1ccnc(-c2cc(F)cc(Cl)c2)c1 [Compound 43, 2-(3-Chloro-5-fluorophenyl)-N-(oxazol-2-yl)isonicotinamide] | 0.25 (≈ 0.787 µM) | 0.0625 (≈ 0.197 µM) | 0.12 (≈ 0.378 µM) | 0.5 | 0.5 (≈ 1.57 µM) |  |  |  |  |  |  | 
12 | O=C(O)c1ccc2nc(NC(=O)c3cc(-c4cccc(OC(F)(F)F)c4)ccn3)oc2c1 [Compound 119, 2-(4-(3-(Trifluoromethoxy)phenyl)picolinamido)benzo[d]oxazole-6-carboxylic acid] |  |  |  |  |  | 124 ± 3.3 (≈ 279 µM) |  |  |  |  |  | 
13 | O=C(Nc1ncco1)c1ccnc(-c2cc(Cl)cc(Cl)c2)c1 [Compound 41, 2-(3,5-Dichlorophenyl)-N-(oxazol-2-yl)isonicotinamide] | 0.06 (≈ 0.18 µM) | 0.0625 (≈ 0.187 µM) | 0.0625 (≈ 0.187 µM) | 1 | 0.06 (≈ 0.18 µM) |  |  |  |  |  |  | 
14 | O=C(Nc1ncco1)c1ccnc(-c2ccc(OC(F)(F)F)cc2)c1 [Compound 46, N-(Oxazol-2-yl)-2-(4-(trifluoromethoxy)phenyl)isonicotinamide] | 0.5 (≈ 1.43 µM) | 1 (≈ 2.86 µM) | 0.125 (≈ 0.358 µM) | 8 | 2 (≈ 5.73 µM) |  |  |  |  |  |  | 
15 | O=C(Nc1ncco1)c1ccnc(-c2ccc(Br)cc2)c1 [Compound 48, 2-(4-Bromophenyl)-N-(oxazol-2-yl)isonicotinamide] | 0.5 (≈ 1.45 µM) | 0.25 (≈ 0.726 µM) | 0.5 (≈ 1.45 µM) | 0.5 | 1 (≈ 2.91 µM) |  |  |  |  |  |  | 
16 | O=C(Nc1ncco1)c1ccnc(-c2cccc(OC(F)(F)F)c2)c1 [Compound 47, N-(Oxazol-2-yl)-2-(3-(trifluoromethoxy)phenyl)isonicotinamide] | 0.25 (≈ 0.716 µM) | 0.0625 (≈ 0.179 µM) | 0.25 (≈ 0.716 µM) | 0.25 | 1 (≈ 2.86 µM) |  |  |  |  |  |  | 
17 | O=C(Nc1nc2ccccc2o1)c1ccnc(-c2ccc(Cl)c(Cl)c2)c1 [Compound 21, N-(benzo[d]oxazol-2-yl)-2-(3,4-dichlorophenyl)isonicotinamide] | 16 (≈ 41.6 µM) |  |  |  | 16 (≈ 41.6 µM) |  | 1 (≈ 2.6 µM) | 1 (≈ 2.6 µM) |  |  |  | 
18 | CN(C)C(=O)c1cnc(NC(=O)c2ccnc(-c3ccc(Cl)c(Cl)c3)c2)o1 [Compound 28, (2-(3,4-Dichlorophenyl)isonicotinamido)-N,N-dimethyloxazole-5-carboxamide] |  |  |  |  |  |  |  |  | 2 | 4 (≈ 9.87 µM) | 0.5 (≈ 1.23 µM) | 8
19 | O=C(O)c1ccc2nc(NC(=O)c3cc(-c4ccc(OC(F)(F)F)cc4)ccn3)oc2c1 [Compound 118, 2-(4-(4-(Trifluoromethoxy)phenyl)picolinamido)benzo[d]oxazole-6-carboxylic acid] | 8 (≈ 18 µM) |  |  |  | 64 (≈ 144 µM) | 79.9 ± 6.3 (≈ 180 µM) |  |  |  |  |  | 
20 | O=C(Nc1ncco1)c1ccnc(Oc2ccc(Cl)c(Cl)c2)c1 [Compound 99, 2-(3,4-Dichlorophenoxy)-N-(oxazol-2-yl)isonicotinamide] | 0.12 (≈ 0.343 µM) |  |  |  | 0.5 (≈ 1.43 µM) | 37 ± 1 (≈ 106 µM) |  |  |  |  |  | 
21 | O=C(Nc1ncco1)c1ccnc(-c2ccc(C(F)(F)F)cc2)c1 [Compound 44, N-(Oxazol-2-yl)-2-(4-(trifluoromethyl)phenyl)isonicotinamide] | 0.25 (≈ 0.75 µM) | 1 (≈ 3 µM) | 0.25 (≈ 0.75 µM) | 4 | 1 (≈ 3 µM) |  |  |  |  |  |  | 
22 | O=C(Nc1ncco1)c1ccnc(-c2cccc(Cl)c2)c1 [Compound 33, 2-(3-Chlorophenyl)-N-(oxazol-2-yl)isonicotinamide] | 0.5 (≈ 1.67 µM) | 0.25 (≈ 0.834 µM) | 0.5 (≈ 1.67 µM) | 0.5 | 1 (≈ 3.34 µM) |  |  |  |  |  |  | 
23 | O=C(Nc1ncco1)c1ccnc(-c2cccc(C(F)(F)F)c2)c1 [Compound 45, N-(Oxazol-2-yl)-2-(3-(trifluoromethyl)phenyl)isonicotinamide] | 0.25 (≈ 0.75 µM) | 0.25 (≈ 0.75 µM) | 0.25 (≈ 0.75 µM) | 1 | 1 (≈ 3 µM) |  |  |  |  |  |  | 
24 | Cc1coc(NC(=O)c2ccnc(-c3ccc(Cl)c(Cl)c3)c2)n1 [Compound 14, 2-(3,4-Dichlorophenyl)-N-(4-methyloxazol-2-yl)isonicotinamide] | 0.06 (≈ 0.172 µM) |  |  |  | 0.25 (≈ 0.718 µM) |  | 0.06 (≈ 0.172 µM) | 0.25 (≈ 0.718 µM) |  |  |  | 
25 | O=C(Nc1ncco1)c1ccnc(OCC(F)(F)F)c1 [Compound 64, N-(Oxazol-2-yl)-2-(2,2,2-trifluoroethoxy)isonicotinamide] | 8 (≈ 27.9 µM) | 4 (≈ 13.9 µM) | 2 (≈ 6.96 µM) | 2 | 8 (≈ 27.9 µM) |  |  |  |  |  |  | 
26 | O=C(Nc1ncco1)c1ccnc(-c2ccc(Cl)c(Cl)c2)c1F [Compound 66, 2-(3,4-Dichlorophenyl)-3-fluoro-N-(oxazol-2-yl)isonicotinamide] | 0.5 (≈ 1.42 µM) | 2 (≈ 5.68 µM) | 0.25 (≈ 0.71 µM) | 8 | 1 (≈ 2.84 µM) |  |  |  |  |  |  | 
